Patent US5703089A, “Dihydrodibenzisoquinolinediones” (Knoll Aktiengesellschaft, priority 1996, dated 1997)
Where “and” joins values, the source holds several entries; their conditions need not be identical. Equal values may be shown once. Where a name gives a salt, the structure may show the parent alone.

What was measured:
M5076 murine sarcoma = experiment: In vivo anti-tumor activity on M5076 murine sarcoma (survival); parameters: species or system C57BL/6 mice; conditions: for % T/C: treated MST/control MST; for MST: treated on days 1.5 and 9
Procedure: Compounds according to the invention may be further tested in any of the various preclinical assays for in vivo activity which are indicative of clinical utility. Such assays may be conducted with human tumors implanted in nude mice as xenografts or mouse tumors implanted in conventional mice in the strain of origin (syngeneic), as is well known in this field. Test compounds are evaluated for their antitumor efficacy following administration to the tumor-bearing mice.
More specifically, human tumors which have been grown in athymic nude mice or mouse tumors grown in their synergeneic host are transplanted into new recipient animals, using either tumor fragments which are about 50 mg in size or 1×10^6 cells harvested from ascites fluid. The day of transplantation is designated as day 0 and the host mice are subsequently injected intravenously or intraperitoneally with the test compounds, in group of 5 to 10 mice per dose level. The compounds are administered either as a single dose or on an intermittent or frequent dosing schedule at doses from 0.1 to 100 mg/kg body weight. Tumor size of solid tumors are measured by vernier calipers in two directions and the volume estimated by the formula: […]
Life span studies following i.p. administration of tumor cells are evaluated on the base of median survival time (MST). The MST of drug treated (T) mice are compared to the MST of control (C) mice and expressed as T/C percent. Compounds producing a T/C percent of >100% indicates some reduction in tumor burden. Values of 125 to 150% may be considered to reflect moderate activity, values of 150 to 200% good to excellent activity, and >200% outstanding activity.
In vivo anti-tumor activity of a Dihydrodibenzoquinolinedione analog on M5076 murine sarcoma^a.
^a C57BL/6 mice (6 per group) were inoculated with 10^6 M5076
cells on day 0. Mice were treated on days 1.5 and 9 with the
dimethanesulfonate salt of example 1 at the dose levels shown. Mice died
as a consequence of tumor burden with median survival times (MST) as
shown. In both studies meaningful antitumor activity was produce as
indicated by a treated MST/Control MST percentage (% T/C) being

[1] = test system: HT-29 colon carcinoma cells; experiment: Inhibition of HT-29 tumor cell proliferation (MTT cytotoxicity, 72 h); type: cell-based; conditions: HT-29, 72 h
Procedure: Cytotoxicity may be measured using standard methodology for adherent cell lines such as the microculture tetrazolium assay (MTT). Details of this assay have been published Cancer Research 48:589-601, 1988). Exponentially growing cultures of tumor cells such as the HT-29 colon carcinoma or LX-1 lung tumor are used to make microtiter plate cultures. Cells are seeded at 5000-20,000 cells per well in 96-well plates (in 150 μl of media), and grown overnight at 37° C. Test compounds are added, in dilutions varying from 10^-4 M to 10^-10 M. The cells are then incubated for 48-72 hours. To determine the number of viable cells in each well, the MTT dye is added (50 μl of 3 mg/ml solution of 3-(4,5-dimethylthiazol-2-yl)-2,5-diphenyltetrazolium bromide in saline). This mixture is incubated at 37° C. for 5 hours, and then 50 μl of 25% strength SDS (pH 2) is added to each well. After overnight incubation, the absorbance of each well at 550 nm is read using an ELISA reader. The values for the mean +/- SD of data from quadruplicate wells are calculated, using the formula % T/C (% cells treated/control). [formula]
The concentration of test compound which gives a T/C of 50% growth inhibition is designated as the IC50.
Inhibition of HT-29 tumor cell proliferation^a.
^a Dihydrodibenzoquinolinedione cytotoxicity studies were performed a
follows: HT29 cells were seeded (5000) into each well of 96 well dishes.
After plating overmight a titration of dihydrodibenzoquinolinedione was
added giving a final volume of 200 ul. Following incubation for 72 h 50 u
of MTT (3 mg/ml) in PBS was added to each well and incubated for 5 hours
at 37° C. The reaction was stopped by the addition of 50 ul of 25%
SDS, pH 2. After an overnight incubation at 37° C. the absorbance,
due to metabolized MTT, was read with a plate reader at 550 nm.
Cytotoxicity was calculate as the well absorbance expressed as a
percentage on nondrug treated control. All estimates were made in
^b 10^-2 M stock solution made in 10% acetic acid then diluted in
^c 10^-2 M stock solution made in 10% DMSO then diluted in media.
^d 10^-4 M stock solution made in 10% acetic acid/10% DMSO then
^e 10^-2 M stock suspention made in DMSO then diluted in media to […]

[2] = 10^-2 M stock solution made in 10% DMSO then diluted in media
[3] = Homo sapiens, 10^-2 M stock solution made in 10% DMSO then diluted in media
[4] = 10^-2 M stock solution made in 10% acetic acid then diluted in media
[5] = Homo sapiens, 10^-2 M stock solution made in 10% acetic acid then diluted in media
[6] = Homo sapiens, 10^-4 M stock solution made in 10% acetic acid/10% DMSO then diluted in media
[7] = 10^-2 M stock suspension made in DMSO then diluted in media to form a solution

Which “% T/C” value (M5076 murine sarcoma; Experiment 1, 1.8 mg/kg) does the source give for `O=C1c2cccc3cc4ccccc4c(c23)C(=O)N1CCNCCCNCCN1C(=O)c2cccc3cc4ccccc4c(c23)C1=O` [1 2 CH3 --SO3 H salt] here?
The value was 154%.

And the MST (M5076 murine sarcoma; Experiment 1, 1.8 mg/kg, control MST 19.5)?
The MST was 30.

What about the “% T/C” value (M5076 murine sarcoma; Experiment 1, 2.6 mg/kg) of the same compound?
Its value is 123%.

And the MST (M5076 murine sarcoma; Experiment 1, 2.6 mg/kg, control MST 19.5)?
The MST was 24.

And the “% T/C” value (M5076 murine sarcoma; Experiment 1, 4 mg/kg)?
The value was “toxic”.

And the MST (M5076 murine sarcoma; Experiment 1, 4 mg/kg, control MST 19.5)?
The MST was “toxic”.

And the “% T/C” value (M5076 murine sarcoma; Experiment 2, 1.2 mg/kg)?
Its value is 128%.

And the MST (M5076 murine sarcoma; Experiment 2, 1.2 mg/kg, control MST 23.5)?
The MST was 30.

And the “% T/C” value (M5076 murine sarcoma; Experiment 2, 1.8 mg/kg)?
The value was 98%.

What about the MST (M5076 murine sarcoma; Experiment 2, 1.8 mg/kg, control MST 23.5) of the same compound?
The MST was 23.

And the “% T/C” value (M5076 murine sarcoma; Experiment 2, 2.7 mg/kg)?
Its value is “toxic”.

What about the MST (M5076 murine sarcoma; Experiment 2, 2.7 mg/kg, control MST 23.5) of the same compound?
Its MST is “toxic”.

What about the “treated MST/Control MST percentage (% T/C)” value (M5076 murine sarcoma; both studies, reproducibly, meaningful antitumor activity) of the same compound?
The value was “greater than 125%”.

And the IC50 [1, 2]?
The IC50 was 0.02 µM.

What about the IC50 [1, 3] of the same compound?
Its IC50 is 0.01 µM.

Which results are given for `O=C1c2cccc3cc4ccccc4c(c23)C(=O)N1CCNCCCNCCN1C(=O)c2cccc3cc4ccccc4c(c23)C1=O` [Example 1, N,N'-Bis[2-(1,2-dihydro-1,3-dioxo-3H-dibenz[de,h]isoquinoline-2-yl)ethyl]-1,3-propanediamine]?
IC50 [1, 4]: 0.005 µM; IC50 [1, 5]: 0.004 µM

What does the source list for `O=C1c2cccc3cc4ccccc4c(c23)C(=O)N1CCNCCNCCN1C(=O)c2cccc3cc4ccccc4c(c23)C1=O` [Example 2, N,N'-Bis[2-(1,2-dihydro-1,3-dioxo-3H-dibenz[de,h]isoquinolin-2-yl)ethyl]-1,2-ethylenediamine]?
IC50 [1, 4]: 0.008 µM; IC50 [1, 5]: 0.01 µM

How did the IC50 [1, 5] turn out when `O=C1c2cccc3cc4ccccc4c(c23)C(=O)N1CCCNCCCCNCCCN1C(=O)c2cccc3cc4ccccc4c(c23)C1=O` [Example 3, N,N'-Bis[3-(1,2-dihydro-1,3-dioxo-3H-dibenz[de,h]isoquinolin-2-yl)propyl]-1,4-butanediamine] was run?
Its IC50 is 0.2 µM.

Which IC50 ([1]; 10^-4 M stock solution made in 10% acetic acid/10% DMSO then diluted in media) does the source give for `O=C1c2cccc3cc4ccccc4c(c23)C(=O)N1CCCCNCCCN1C(=O)c2cccc3cc4ccccc4c(c23)C1=O` [Example 4, [3-(1,2-dihydro-1,3-dioxo-3H-dibenz[de,h]isoquinolin-2-yl)propyl][4-(1,2-dihydro-1,3-dioxo-3,4-dibenz[de,h]isoquinolin-2-yl)butyl]amine] here?
Its IC50 is 0.05 µM.

What about the IC50 [1, 6] of the same compound?
The IC50 was 0.09 µM.

With `O=C1c2cccc3cc4ccccc4c(c23)C(=O)N1CCCNCCCN1C(=O)c2cccc3cc4ccccc4c(c23)C1=O` [Example 7, Bis[3-(1,2-dihydro-1,3-dioxo-3H-dibenz[de,h]isoquinolin-2-yl)propyl]amine] as the compound, how does the IC50 [1, 5] read?
The IC50 was 0.02 µM.

For `O=C1c2cccc3cc4ccccc4c(c23)C(=O)N1CCNCCN1C(=O)c2cccc3cc4ccccc4c(c23)C1=O` [Example 9, Bis[2-(1,2-dihydro-1,3-dioxo-3H-dibenz[de,h]isoquinolin-2-yl)ethyl)amine], which IC50 [1, 6] is on record?
The IC50 was 0.02 µM.

Which IC50 [1, 4] does the source give for `O=C1c2cccc3cc4ccccc4c(c23)C(=O)N1CCCNCCNCCCN1C(=O)c2cccc3cc4ccccc4c(c23)C1=O` [Example 10, N,N'-Bis[3-(1,2-dihydro-1,3-dioxo-3H-dibenz[de,h]isoquinolin-2-yl)propyl]-1,2-ethylenediamine] here?
Its IC50 is 0.09 µM.

And the IC50 [1, 5]?
The IC50 was 0.1 µM.

Which IC50 [1, 4] does the source give for `O=C1c2cccc3cc4ccccc4c(c23)C(=O)N1CCCNCCCNCCCN1C(=O)c2cccc3cc4ccccc4c(c23)C1=O` [Example 11, N,N'-Bis[3-(1,2-dihydro-1,3-dioxo-3H-dibenz[de,h]isoquinolin-2-yl)propyl]-1,3-propanediamine] here?
The IC50 was 0.08 µM.

What about the IC50 [1, 5] of the same compound?
The IC50 was 0.1 µM.

What does the source list for `O=C1c2cccc3cc4c([N+](=O)[O-])cccc4c(c23)C(=O)N1CCNCCCNCCN1C(=O)c2cccc3cc4c([N+](=O)[O-])cccc4c(c23)C1=O` [Example 12, N,N'-Bis[2-(1,2-dihydro-8-nitro-1,3-dioxo-3H-dibenz[de,h]isoquinolin-2-yl)ethyl]-1,3-propanediamine]?
IC50 [1, 7]: 0.04 µM; IC50 ([1]; Homo sapiens, 10^-2 M stock suspension made in DMSO then diluted in media to form a solution): 0.03 µM

For `O=C1c2cccc3cc4c([N+](=O)[O-])cccc4c(c23)C(=O)N1CCNCCNCCN1C(=O)c2cccc3cc4c([N+](=O)[O-])cccc4c(c23)C1=O` [Example 13, N,N'-Bis-[2-(1,2-dihydro-8-nitro-1,3-dioxo-3H-dibenz[de,h]isoquinolin-2-yl)ethyl]1,3-ethylenediamine], which IC50 [1, 7] is on record?
The IC50 was 0.1 µM and 0.09 µM.

Which results are given for `CN(CCN(C)CCN1C(=O)c2cccc3cc4ccccc4c(c23)C1=O)CCN1C(=O)c2cccc3cc4ccccc4c(c23)C1=O` [Example 14, N,N'-Bis[2-(1,2-dihydro-1,3-dioxo-3H-dibenz[de,h]isoquinolin-2-yl)ethyl]-N,N'-dimethyl-1,2-ethylenediamine]?
IC50 [1, 2]: 0.08 µM; IC50 [1, 3]: 0.07 µM

Which IC50 [1, 3] does the source give for `O=C1c2cccc3cc4ccccc4c(c23)C(=O)N1CCNCCCCCNCCN1C(=O)c2cccc3cc4ccccc4c(c23)C1=O` [Example 15, N,N'-Bis[2-(1,2-dihydro-1,3-dioxo-3H-dibenz[de,h]isoquinolin-2-yl)ethyl]-1,5-pentanediamine] here?
Its IC50 is 0.008 µM.
